Measured values taken from ChEMBL document CHEMBL1146649, “New highly active taxoids from 9 beta-dihydrobaccatin-9,10-acetals. Part 5” (2004).
Converted amounts (≈) assume the structure as drawn.

Columns and labels:
[1] = system: PC-6; experiment: Concentration required to inhibit human PC-6 cell line growth by 50% at 72 hr continuous exposure; format: functional; conditions: PC-6, 72 h
[2] = system: P388; experiment: Concentration required to inhibit mouse P388 cell line growth by 50% at 72 hr continuous exposure; format: functional; conditions: P388, 72 h
[3] = system: PC-6; experiment: Concentration that inhibited the growth of PC-6/VCR29-9 cells by 50% at 72 hr continuous exposure; format: functional; conditions: Homo sapiens, PC-6, 72 h
[4] = system: PC-6; experiment: Concentration required to inhibit human PC-6/VP1-1 cell line growth by 50% at 72 hr exposure; format: functional; conditions: PC-6, 72 h
[5] = system: PC-12; experiment: Concentration required to inhibit human PC-12 cell line growth by 50% at 72 hr continuous exposure; format: functional; conditions: PC-12, 72 h
[6] = system: PC-6; experiment: Concentration required to inhibit human PC-6/VCR29-9 cell line growth by 50% at 72 hr exposure; format: functional; conditions: PC-6, 72 h
[7] = system: B16; experiment: Effective dose of perorally administered compound against B16 melanoma BL6 cells implanted into mice; format: functional; conditions: Mus musculus
[8] = system: B16; experiment: Effective dose of intravenously administered compound against B16 melanoma BL6 cells implanted into mice; format: functional; conditions: Mus musculus, B16, iv
[9] = system: Mus musculus; experiment: Effective dose of perorally administered compound against B16 melanoma BL6 cells implanted into mice; range is 11.9-27.6; format: functional; conditions: B16, po
[10] = system: Mus musculus; experiment: Antitumor activity of 17.8 mg/kg of intravenously administered compound against B16 melanoma BL6 cells implanted into mice, value reported is percent compared to control; format: functional; conditions: route intravenous
[11] = system: Mus musculus; experiment: Maximum rate of body weight loss after intravenous administration of 11.9 mg/kg of compound in mice; <0 indicates no weight loss; format: functional
[12] = system: Mus musculus; experiment: Number of mice died at 7.9 mg/kg of intravenous dose of compound among the total 6 mice tested; format: functional
[13] = system: Mus musculus; experiment: Antitumor activity of 26.7 mg/kg of perorally administered compound against B16 melanoma BL6 cells implanted into mice, value reported is percent compared to control; format: functional; conditions: route oral
[14] = system: Mus musculus; experiment: Number of mice died at 26.7 mg/kg of peroral dose of compound among the total 6 mice tested; format: functional; conditions: route oral
[15] = system: Mus musculus; experiment: Maximum rate of body weight loss after intravenous administration of 17.8 mg/kg of compound in mice; format: functional
[16] = system: B16; experiment: Antitumor activity of 17.8 mg/kg of perorally administered compound against B16 melanoma BL6 cells implanted into mice, value reported is percent compared to control; format: functional, Mus musculus; conditions: route oral
[17] = system: B16; experiment: Antitumor activity of 11.9 mg/kg of intravenously administered compound against B16 melanoma BL6 cells implanted into mice, value reported is percent compared to control; format: functional, Mus musculus; conditions: route intravenous
[18] = system: Mus musculus; experiment: Number of mice died at 17.8 mg/kg of peroral dose among the total 6 mice tested; format: functional; conditions: route oral
[19] = system: Mus musculus; experiment: Number of mice died at 17.8 mg/kg of intravenous dose among the total 6 mice tested; format: functional
[20] = system: Mus musculus; experiment: Number of mice died at 11.9 mg/kg of peroral dose, among the total 6 mice tested; format: functional; conditions: route oral
[21] = system: Mus musculus; experiment: Number of mice died at 11.9 mg/kg of intravenous dose, among the total 6 mice tested; format: functional
[22] = system: Mus musculus; experiment: Maximum rate of body weight loss after peroral administration of 17.8 mg/kg of compound in mice; format: functional; conditions: route oral
[23] = system: Mus musculus; experiment: Antitumor activity of 7.9 mg/kg of intravenously administered compound against B16 melanoma BL6 cells implanted into mice, value reported is percent compared to control; format: functional; conditions: route intravenous
[24] = system: Mus musculus; experiment: Maximum rate of body weight loss after peroral administration of 11.9 mg/kg of compound in mice; <0 indicates no weight loss; format: functional; conditions: route oral
[25] = system: Mus musculus; experiment: Antitumor activity of 26.7 mg/kg of intravenously administered compound against B16 melanoma BL6 cells implanted into mice, value reported is percent compared to control; format: functional; conditions: route intravenous
[26] = system: Mus musculus; experiment: Effective dose of intravenously administered compound against B16 melanoma BL6 cells implanted into mice; range is 7.9-17.8; format: functional; conditions: B16, iv
[27] = system: Mus musculus; experiment: Effective dose of perorally administered compound against B16 melanoma BL6 cells implanted into mice; range is 11.9-26.7; format: functional; conditions: B16, po
[28] = system: Mus musculus; experiment: Number of mice died at 26.7 mg/kg of intravenous dose of compound among the total 6 mice tested; format: functional
[29] = system: Mus musculus; experiment: Maximum rate of body weight loss after intravenous administration of 7.9 mg/kg of compound in mice; format: functional
[30] = system: Mus musculus; experiment: Maximum rate of body weight loss after peroral administration of 26.7 mg/kg of compound in mice; format: functional; conditions: route oral
[31] = system: Mus musculus; experiment: Maximum rate of body weight loss after intravenous administration of 26.7 mg/kg of compound in mice; format: functional
[32] = system: B16; experiment: Antitumor activity of 11.9 mg/kg of perorally administered compound against B16 melanoma BL6 cells implanted into mice, value reported is percent compared to control; format: functional, Mus musculus; conditions: route oral
[33] = system: Mus musculus; experiment: Number of mice died at 40.0 mg/kg of peroral dose of compound among the total 6 mice tested; format: functional; conditions: route oral

CC(=O)O[C@@]12CO[C@@H]1CC[C@@]1(C)[C@@H]3O[C@H](CN(C)C)O[C@@H]3C3=C(C)[C@@H](OC(=O)[C@H](O)[C@@H](NC(=O)OC(C)(C)C)c4cscn4)C[C@@](O)([C@@H](OCc4ccccc4)[C@@H]12)C3(C)C
GI50 [1]: 0.35 ng/mL (≈ 0.409 nM) | GI50 [2]: 0.06 ng/mL (≈ 0.0701 nM) | GI50 [3]: 1.1 ng/mL (≈ 1.28 nM) | GI50 [4]: 0.0173 µg/mL (≈ 20.2 nM) | GI50 [5]: 0.19 ng/mL (≈ 0.222 nM)

CC(=O)O[C@@]12CO[C@@H]1CC[C@@]1(C)[C@@H]3O[C@H](CNC4CC4)O[C@@H]3C3=C(C)[C@@H](OC(=O)[C@H](O)[C@@H](NC(=O)OC(C)(C)C)c4nccs4)C[C@@](O)([C@@H](OCc4ccccc4)[C@@H]12)C3(C)C
GI50 [1]: 0.42 ng/mL (≈ 0.484 nM) | GI50 [6]: 1.16 ng/mL (≈ 1.34 nM) | GI50 [2]: 0.06 ng/mL (≈ 0.0691 nM) | GI50 [4]: 0.0394 µg/mL (≈ 45.4 nM) | GI50 [5]: 0.12 ng/mL (≈ 0.138 nM)

CC(=O)O[C@@]12CO[C@@H]1CC[C@@]1(C)[C@@H]3O[C@H](CN(C)C)O[C@@H]3C3=C(C)[C@@H](OC(=O)[C@H](O)[C@@H](NC(=O)OC(C)(C)C)C(C)(C)C)C[C@@](O)([C@@H](OCc4ccccc4)[C@@H]12)C3(C)C
GI50 [1]: 0.67 ng/mL (≈ 0.808 nM) | GI50 [6]: 1.42 ng/mL (≈ 1.71 nM) | ED50 ([7]; B16, po): 11.9 mg/kg | ED50 [8]: 11.9 mg/kg | GI50 [2]: 0.73 ng/mL (≈ 0.881 nM) | GI50 [4]: 0.0157 µg/mL (≈ 18.9 nM) | GI50 [5]: 0.5 ng/mL (≈ 0.603 nM)

CC(=O)O[C@@]12CO[C@@H]1CC[C@@]1(C)[C@@H]3O[C@H](CNC4CCC4)O[C@@H]3C3=C(C)[C@@H](OC(=O)[C@H](O)[C@@H](NC(=O)OC(C)(C)C)c4ccccn4)C[C@@](O)([C@@H](OCc4ccccc4)[C@@H]12)C3(C)C
GI50 [1]: 0.83 ng/mL (≈ 0.947 nM) | GI50 [6]: 4.88 ng/mL (≈ 5.57 nM) | ED50 [9]: 27.6 mg/kg | ED50 [8]: 7.9 mg/kg | GI50 [2]: 0.56 ng/mL (≈ 0.639 nM) | GI50 [4]: 0.0817 µg/mL (≈ 93.3 nM) | GI50 [5]: 1.45 ng/mL (≈ 1.66 nM)

CC(=O)O[C@@]12CO[C@@H]1CC[C@@]1(C)[C@@H]3O[C@H](CN4CCOCC4)O[C@@H]3C3=C(C)[C@@H](OC(=O)[C@H](O)[C@@H](NC(=O)OC(C)(C)C)c4nccs4)C[C@@](O)([C@@H](OCc4ccccc4)[C@@H]12)C3(C)C
GI50 [1]: 0.12 ng/mL (≈ 0.134 nM) | GI50 [6]: 1.37 ng/mL (≈ 1.53 nM) | IR [10]: 96.9% | BWLmax [11]: <0% | Mortality [12]: 0 | IR [13]: 97.8% | Mortality [14]: 0 | BWLmax [15]: 7.1% | IR [16]: 97% | GI50 [2]: 0.06 ng/mL (≈ 0.0668 nM) | IR [17]: 85.7% | Mortality [18]: 0 | Mortality [19]: 0 | Mortality [20]: 0 | Mortality [21]: 0 | BWLmax [22]: 8.8% | GI50 [4]: 0.0197 µg/mL (≈ 21.9 nM) | IR [23]: 79.1% | BWLmax [24]: <0% | IR [25]: 98.3% | ED50 [26]: 17.8 mg/kg | ED50 [27]: 26.7 mg/kg | Mortality [28]: 2 | BWLmax [29]: 1.5% | BWLmax [30]: 10% | BWLmax [31]: 15% | IR [32]: 77.9% | GI50 [5]: 0.13 ng/mL (≈ 0.145 nM) | Mortality [33]: 6

CC(=O)O[C@@]12CO[C@@H]1CC[C@@]1(C)[C@@H]3O[C@H](CN4CCOCC4)O[C@@H]3C3=C(C)[C@@H](OC(=O)[C@H](O)[C@@H](NC(=O)OC(C)(C)C)c4cncs4)C[C@@](O)([C@@H](OCc4ccccc4)[C@@H]12)C3(C)C
GI50 [1]: 0.07 ng/mL (≈ 0.0779 nM) | ED50 [7]: None | ED50 [8]: 7.9 mg/kg | GI50 [2]: 0.04 ng/mL (≈ 0.0445 nM) | GI50 [3]: 0.66 ng/mL (≈ 0.735 nM) | GI50 [4]: 0.0205 µg/mL (≈ 22.8 nM) | GI50 [5]: 0.12 ng/mL (≈ 0.134 nM)
